ChEMBL document CHEMBL1139571, “Synthesis and characterization of azole isoflavone inhibitors of aromatase” (Bioorg Med Chem Lett, 2005)

Biological target: T1, Aromatase (Homo sapiens, UniProt P11511)
T1 sequence (P11511 whole entry): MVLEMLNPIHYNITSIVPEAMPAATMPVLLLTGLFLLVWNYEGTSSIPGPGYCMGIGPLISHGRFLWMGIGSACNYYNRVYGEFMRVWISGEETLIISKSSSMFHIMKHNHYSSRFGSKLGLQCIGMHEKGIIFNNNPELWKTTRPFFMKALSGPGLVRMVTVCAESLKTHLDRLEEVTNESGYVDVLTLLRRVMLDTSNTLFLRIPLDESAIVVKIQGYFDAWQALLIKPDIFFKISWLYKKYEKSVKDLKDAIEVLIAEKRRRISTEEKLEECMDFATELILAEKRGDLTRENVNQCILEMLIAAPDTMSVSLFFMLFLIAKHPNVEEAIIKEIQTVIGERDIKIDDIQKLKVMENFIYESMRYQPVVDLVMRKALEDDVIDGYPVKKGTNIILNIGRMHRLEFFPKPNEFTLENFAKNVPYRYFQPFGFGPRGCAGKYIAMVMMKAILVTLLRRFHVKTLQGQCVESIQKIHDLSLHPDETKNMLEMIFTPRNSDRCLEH
Description: Inhibitory concentration against human placental aromatase by deutirium oxide release

## COc1ccc2c(=O)c(-c3ccccc3)c(Sc3nccn3C)oc2c1
  IC50: > 50 µM
